Test system: imagoes of the tiger mosquito, Aedes albopictus
Experiment: noxious-insect repellency test (treated forearm in a cage of tiger mosquitoes, percent repellency from biting marks)
Assay type: in vivo
Conditions: content 0.05% (wt. %) in 40 wt. % ethanol aqueous solution; an hour after application
Procedure: In each example, the noxious-insect repellency test was conducted as follows:
Test method of noxious-insect repelling effect and durability thereof In order to assess the repelling effect against imagoes of the tiger mosquito, Aedes albopictus, the following test was conducted at a room temperature of 30° C. and a relative humidity of 70% in an air-conditioned room. 10 ml each of test samples was applied to left and right forearms. Each treated forearm was introduced into a wire gauze cage (20 cm L.×15 cm Dia.) containing 50 female and 50 male tiger mosquitoes 5-7 days old after eclosion, for 15 minutes to afford time for biting. The assessment was repeated 30 minutes, 1 hour, 2 hours, 4 hours and 6 hours after the test sample was applied. The number of marks made by biting within each biting time was counted and a percent repellency was calculated using the following formula:
Percent repellency=(X−Y)/X×100 (%)
X: the number of the marks made by biting when the test sample was not applied,
Y: the number of the marks made by biting when the test sample was applied.

Row | SMILES | Percent repellency [%]
1 | CC(C)C1CCC(C)C(CO)C1O (centres unmarked) [HMMO, 2-hydroxymethyl-menthol] | 18

Same assay, conditions: content 0.1% (wt. %) in 40 wt. % ethanol aqueous solution; an hour after application

Row | SMILES | Percent repellency [%]
2 | CC1CCC(C(C)(C)O)C(=O)C1C (centres unmarked) [8-hydroxy-2-methyl-p-menthan-3-one] | 30
3 | CC(C)C1CCC(C)C(CO)C1O (centres unmarked) [HMMO, 2-hydroxymethyl-menthol] | 48

Same assay, conditions: content 1% (wt. %) in 40 wt. % ethanol aqueous solution; an hour after application

Row | SMILES | Percent repellency [%]
4 | CC1CCC(C(C)(C)O)C(=O)C1C (centres unmarked) [8-hydroxy-2-methyl-p-menthan-3-one] | 70
5 | CC(C)C1CCC(C)C(CO)C1O (centres unmarked) [HMMO, 2-hydroxymethyl-menthol] | 78

Same assay, conditions: content 3% (wt. %) in 40 wt. % ethanol aqueous solution; an hour after application

Row | SMILES | Percent repellency [%]
6 | CC1CCC(C(C)(C)O)C(=O)C1C (centres unmarked) [8-hydroxy-2-methyl-p-menthan-3-one] | 94
7 | CC(C)C1CCC(C)C(CO)C1O (centres unmarked) [HMMO, 2-hydroxymethyl-menthol] | 92

Same assay, conditions: lotion or milky lotion containing the compound, tiger mosquito imagoes

Row | SMILES | noxious-insect repelling effect and durability (result in words)
8 | CCCCC(O)C1CC(C)CCC1=O (centres unmarked) [2-(1-hydroxyamyl)-4-methyl-cyclohexanone] | excellent noxious-insect repelling effect and durability
9 | CCCC(O)C1C(O)CCC1CC (centres unmarked) [2-(1-hydroxybutyl)-3-ethyl-cyclopentanol] | excellent noxious-insect repelling effect and durability
10 | CCCC(O)C1C(=O)CCC1CC (centres unmarked) [2-(1-hydroxybutyl)-3-ethyl-cyclopentanone] | excellent noxious-insect repelling effect and durability
11 | CC(O)C1C(O)CCC(C)C1C (centres unmarked) [2-(1-hydroxyethyl)-3,4-dimethyl-cyclohexanol] | excellent noxious-insect repelling effect and durability
12 | CC(O)C1C(=O)CCC(C)C1C (centres unmarked) [2-(1-hydroxyethyl)-3,4-dimethyl-cyclohexanone] | excellent noxious-insect repelling effect and durability
13 | CC1CCC(O)C(C(C)O)C1 (centres unmarked) [2-(1-hydroxyethyl)-4-methyl-cyclohexanol] | excellent noxious-insect repelling effect and durability
14 | CC1CCC(=O)C(C(C)O)C1 (centres unmarked) [2-(1-hydroxyethyl)-4-methyl-cyclohexanone] | excellent noxious-insect repelling effect and durability
15 | CC(O)C1CCCCCCCCC1O (centres unmarked) [2-(1-hydroxyethyl)-cyclodecanol] | excellent noxious-insect repelling effect and durability
16 | CC(O)C1CCCCCCCCCCC1=O (centres unmarked) [2-(1-hydroxyethyl)-cyclododecanone] | excellent noxious-insect repelling effect and durability
17 | CC(O)C1CCCCCC1O (centres unmarked) [2-(1-hydroxyethyl)-cycloheptanol] | excellent noxious-insect repelling effect and durability
18 | CC(O)C1CCCCCC1=O (centres unmarked) [2-(1-hydroxyethyl)-cycloheptanone] | excellent noxious-insect repelling effect and durability
19 | CC(O)C1CCCCCCC1O (centres unmarked) [2-(1-hydroxyethyl)-cyclooctanol] | excellent noxious-insect repelling effect and durability
20 | CC(O)C1CCCCCCC1=O (centres unmarked) [2-(1-hydroxyethyl)-cyclooctanone] | excellent noxious-insect repelling effect and durability
21 | CC1CCC(C(C)(C)O)C1=O (centres unmarked) [2-(1-hydroxyisopropyl)-5-methyl-cyclopentanone] | excellent noxious-insect repelling effect and durability
22 | CCC(O)C1CC(C)CCC1O (centres unmarked) [2-(1-hydroxypropyl)-4-methyl-cyclohexanol] | excellent noxious-insect repelling effect and durability
23 | CCC1(CO)CCCCC1O (centres unmarked) [2-hydroxymethyl-2-ethyl-cyclohexanol] | excellent noxious-insect repelling effect and durability
24 | CCC1(CO)CCCC1O (centres unmarked) [2-hydroxymethyl-2-ethyl-cyclopentanol] | excellent noxious-insect repelling effect and durability
25 | CC(C)C1(CO)CCCCC1O (centres unmarked) [2-hydroxymethyl-2-isopropyl-cyclohexanol] | excellent noxious-insect repelling effect and durability
26 | CC(C)C1(CO)CCCC1O (centres unmarked) [2-hydroxymethyl-2-isopropyl-cyclopentanol] | excellent noxious-insect repelling effect and durability
27 | CCCCCCCCC1(CO)CCCCC1O (centres unmarked) [2-hydroxymethyl-2-octyl-cyclohexanol] | excellent noxious-insect repelling effect and durability
28 | CCCCCCCCC1(CO)CCCC1O (centres unmarked) [2-hydroxymethyl-2-octyl-cyclopentanol] | excellent noxious-insect repelling effect and durability
29 | CCCCCCCCCCCC1(CO)CCCCC1O (centres unmarked) [2-hydroxymethyl-2-undecyl-cyclohexanol] | excellent noxious-insect repelling effect and durability
30 | CCCCCCCCCCCC1(CO)CCCC1O (centres unmarked) [2-hydroxymethyl-2-undecyl-cyclopentanol] | excellent noxious-insect repelling effect and durability
31 | CC1CCC(=O)C(CO)C1C (centres unmarked) [2-hydroxymethyl-3,4-dimethyl-cyclohexanone] | excellent noxious-insect repelling effect and durability
32 | CC(C)(C)C1CCC(O)C(CO)C1 (centres unmarked) [2-hydroxymethyl-4-(t-butyl)-cyclohexanol] | excellent noxious-insect repelling effect and durability

Row | SMILES | noxious-insect repelling effect and durability (result in words)
33 | CC(C)(C)C1CCC(=O)C(CO)C1 (centres unmarked) [2-hydroxymethyl-4-(t-butyl)-cyclohexanone] | excellent noxious-insect repelling effect and durability
34 | CCC1CC(O)C(CO)C1 (centres unmarked) [2-hydroxymethyl-4-ethyl-cyclopentanol] | excellent noxious-insect repelling effect and durability
35 | CCC1CC(=O)C(CO)C1 (centres unmarked) [2-hydroxymethyl-4-ethyl-cyclopentanone] | excellent noxious-insect repelling effect and durability
36 | CC(C)C1CC(C)C(O)C(CO)C1 (centres unmarked) [2-hydroxymethyl-4-isopropyl-6-methyl-cyclohexanol] | excellent noxious-insect repelling effect and durability
37 | CC1CC(C(C)C)CC(CO)C1=O (centres unmarked) [2-hydroxymethyl-4-isopropyl-6-methyl-cyclohexanone] | excellent noxious-insect repelling effect and durability
38 | CC1CCC(=O)C(CO)C1 (centres unmarked) [2-hydroxymethyl-4-methyl-cyclohexanone] | excellent noxious-insect repelling effect and durability
39 | O=C1CCCCCCCCCCC1CO (centres unmarked) [2-hydroxymethyl-cyclododecanone] | excellent noxious-insect repelling effect and durability
40 | OCC1CCCCCCC1O (centres unmarked) [2-hydroxymethyl-cyclooctanol] | excellent noxious-insect repelling effect and durability
41 | O=C1CCCCCCC1CO (centres unmarked) [2-hydroxymethyl-cyclooctanone] | excellent noxious-insect repelling effect and durability
42 | CC(C)C(O)C1C2CCC(C)(C1O)C2(C)C (centres unmarked) [3-(1-hydroxy-2-methylpropyl)-borneol] | excellent noxious-insect repelling effect and durability
43 | CC(C)C(O)C1C(=O)C2(C)CCC1C2(C)C (centres unmarked) [3-(1-hydroxy-2-methylpropyl)-camphor] | excellent noxious-insect repelling effect and durability
44 | CCCC(O)C1C2CCC(C)(C1O)C2(C)C (centres unmarked) [3-(1-hydroxybutyl)-borneol] | excellent noxious-insect repelling effect and durability
45 | CCCC(O)C1C(=O)C2(C)CCC1C2(C)C (centres unmarked) [3-(1-hydroxybutyl)-camphor] | excellent noxious-insect repelling effect and durability
46 | CC(O)C1C2CCC(C)(C1O)C2(C)C (centres unmarked) [3-(1-hydroxyethyl)-borneol] | excellent noxious-insect repelling effect and durability
47 | CC(O)C1C(=O)C2(C)CCC1C2(C)C (centres unmarked) [3-(1-hydroxyethyl)-camphor] | excellent noxious-insect repelling effect and durability
48 | CCCCCC(O)C1C(=O)C2(C)CCC1C2(C)C (centres unmarked) [3-(1-hydroxyhexyl)-camphor, reference compound] | does not exhibit the repelling effect
49 | CC12CCC(C(CO)C1=O)C2(C)C (centres unmarked) [3-(1-hydroxymethyl)-camphor] | excellent noxious-insect repelling effect and durability
50 | CCC(O)C1C2CCC(C)(C1O)C2(C)C (centres unmarked) [3-(1-hydroxypropyl)-borneol] | excellent noxious-insect repelling effect and durability
51 | CCC(O)C1C(=O)C2(C)CCC1C2(C)C (centres unmarked) [3-(1-hydroxypropyl)-camphor] | excellent noxious-insect repelling effect and durability
52 | CC(C)C1CCC(C)C(CO)C1O (centres unmarked) [HMMO, 2-hydroxymethyl-menthol] | excellent noxious-insect repelling effect and durability
53 | CC(C)C1CCC(C)C(CO)C1=O (centres unmarked) [HMMT, 2-hydroxymethyl-menthone] | excellent noxious-insect repelling effect and durability
54 | CC1CCC(C(C)(C)O)C(O)C1C (centres unmarked) [MMD, p-menthane-2-methyl-3,8-diol] | excellent noxious-insect repelling effect and durability
55 | C=C1C(C)CCC(C(C)(C)O)C1O (centres unmarked) [MMED, p-menthane-2-methylene-3,8-diol] | excellent noxious-insect repelling effect and durability
56 | C=CCC1C(C)CCC(C(C)(C)O)C1O (centres unmarked) [p-menthane-2-(2-propenyl)-3,8-diol] | excellent noxious-insect repelling effect and durability
